Source: US20070105162A1, “Monovalent avidin and streptavidin compositions” (Massachusetts Institute of Technology, priority 2005, published 2007)

What was measured:
[1] = tested on: biotinylated AP-CFP-TM on HeLa cells; assay: Staining of biotinylated AP-CFP-TM on HeLa with Alexa Fluor 568-conjugated streptavidins; type: cell-based; conditions: Alexa Fluor 568 conjugate 10 μg/mL, 10 min at 4° C.
Method: Enzymatic biotinylation and imaging of HeLa transfectants were performed as previously described (Howarth, M. et al., Proc. Natl. Acad. Sci. USA 102: 7583-7588, 2005), except instead of 10 μM biotin and 1 mM ATP, we added 10 μM biotin-AMP (synthesized according to Coleman and Huang; Coleman, T. M. and Huang, F. Chem. Biol. 9: 1227-1236, 2002) to give equivalent biotinylation but minimizing the risk of purinoreceptor activation by ATP (Rathbone, M. P. et al., Prog. Neurobiol. 59: 663-690, 1999). […] Biotinylation of neurons was performed at day in vitro (DIV) 8 in Hanks' Balanced Salt Solution (HBSS) (Invitrogen) with 0.2 μM biotin ligase and 10 μM biotin-AMP for 5 min at 37° C. […] Neurons were washed with NeuroBasal media (Invitrogen) supplemented with B-27 (Invitrogen), 50 U/mL penicillin, 50 μg/mL streptomycin, and 0.2 mM L-glutamine and chased in the same medium for 0 or 2 hr at 37° C. Cells were then fixed in −20° C. methanol. […]
Images of HeLa cells were collected on a Zeiss Axiovert 200M inverted epifluorescence microscope using a 40× oil-immersion lens and a MicroMAX CCD camera (Roper Scientific; Tucson, Ariz.). CFP (420DF20 excitation, 450DRLP dichroic, 475DF40 emission) and Alexa568 (560DF20 excitation, 585DRLP dichroic, 605DF30 emission) images were collected and analyzed using OpenLab software (Improvision; Lexington, Mass.). Fluorescence images were background-corrected. […] Images were scaled to 16 bits and analyzed in Northern Eclipse (Empix Imaging; Ontario, Canada) with user-written software. […] Results were then calculated in terms of clusters per micrometer of dendrite. For assessment of pre-synaptic terminals, clusters were determined as before and average grey levels of clusters were compared between transfected dendrites and untransfected dendrites within the same field of view. […] “n” represents the number of transfected neurons for which clusters were measured. […]

[2] = Electrospray ionization mass spectrometry: biotin molecules bound per streptavidin tetramer; type: binding; conditions: for # biotins (bound to each tetramer): from mass change upon addition of biotin, 30 μM protein, 200 μM biotin; for biotin binding per tetramer by mass spectrometry (in words): spectra with or without biotin
Method: Biospin columns (Bio-Rad) were equilibrated by spinning 5 times in 500 μL of 15 mM ammonium acetate pH 7.8 at 1000 g for 2 min. Then 30-50 μL of 30 μM protein in PBS was buffer-exchanged into 15 mM ammonium acetate pH 7.8 using the pre-equilibrated Biospin columns by spinning for 20 s at 1000 g. To ensure that PBS was completely removed, the flow-through was again buffer-exchanged with a second pre-equilibrated column for 20 s. This procedure also removed free biotin when the starting 30 μM streptavidin forms were incubated with 200 μM biotin. Less than 2 min before introducing into the mass spectrometer, the buffer-exchanged samples were diluted with a solution of 1:1 15 mM ammonium acetate pH 7.8 and 78% acetonitrile, 0.01% trifluoroacetic acid.
An Advion nanospray robot (Advion BioSystems, Ithica, N.Y.) with a back-pressure of 0.45 Psi introduced the samples into the mass spectrometer, an 8.5 Tesla custom-built Electrospray Ionisation-Fourier Transform Mass Spectrometer. To visualize the non-covalent tetramers and non-covalent biotin binding in the high m/z range, the following settings were used: Chirp rate=750 Hz, Amplitude=0.5 V p-p, Tube lens=200 V, Capillary heater 2 V, Quad filter=−20 V, Skimmer=0 V, Capillary offset=34 V, X-fer=−110 V, Leak gas=4.2×10^−5 Torr. The capillary heater was kept low and the Quad filter and Skimmer were kept either high or off to prevent subunit dissociation. The transfer was set to this low value of −110 V in order to visualize the high m/z region.
The masses were calculated manually by first determining the charge state. The final mass was determined by multiplying the observed m/z by the charge and subtracting the mass corresponding to the addition of protons to give that charge. For example, for the 15+charge state of D4 an m/z of 3534.159 was obtained. (15×3534.159)-(15×1.00727) gave a mass for this ion of 52,997 Da. This calculation was repeated for each charge state and the mean and standard deviation reported. The spectra were calibrated with tetrameric streptavidin, after its monomer mass was determined under denaturing conditions (Mr=13,271.4 Da). Average masses were predicted from the DNA sequence, using the ExPASy PeptideMass Calculator (ca.expasy.org/tools/peptide-mass.html) and assuming removal of the N-terminal formyl-Methionine.
The different tetramers were purified using a Ni-nitrilotriacetic acid (NTA) column, eluting according to the number of His6-tags with increasing concentrations of imidazole. […] The tetramer composition was further confirmed by boiling the samples before loading on SDS-PAGE, to determine the ratio of A to D subunits (FIG. 1D), and by electrospray ionization mass spectrometry. In Table 1 (Schwartz, B. L. et al., J. of the Amer. Soc. for Mass Spec. 6: 459-465, 1995) the observed mass (±s.d.), determined by Electrospray Ionization-Mass Spectrometry, is compared to the mass predicted from the sequence. From the change (±s.e.m.) upon addition of biotin (mass 244.31), we determined how many biotin molecules were bound to each tetramer.
Electrospray ionization mass spectrometry was used to characterize the number of biotin molecules bound per tetramer. Spectra of the different streptavidin tetramers with or without biotin were acquired. […] The other chimeric tetramers bound one biotin per A subunit.

D4: Streptavidin tetramer with 4 dead subunits (D: N23A, S27D, S45A, SEQ ID NO:3) [Tetramer D4]
Alexa staining of biotinylated AP-CFP-TM [1]: no detectable staining
# biotins (bound to each tetramer) [2]: 0
biotin binding per tetramer by mass spectrometry (in words) [2]: No biotin binding

A1D3: Monovalent streptavidin tetramer: one His6-tagged wild-type (A) subunit and three dead (D) subunits [Tetramer A1D3]
Alexa staining of biotinylated AP-CFP-TM [1]: detected equally well
# biotins (bound to each tetramer) [2]: 1
biotin binding per tetramer by mass spectrometry (in words) [2]: single biotin
